# Measured values from patent US9469878B2, “Methods of treating cancer comprising targeting NQO1” (The Board of Regents of the University of Texas System, priority 2010, dated 2016).
# Experiments:
# Type in all cases: cell-based, human
# PC-3 cells = assay: Relative DNA cell survival assay, β-lap with or without IR; conditions: for Equivalent dose of IR / Equivalent dose of β-Lap: Machado's model
# Method: Relative DNA cell survival assays were assessed after various treatments. Briefly, cells were seeded at 5×10^3 per well in 48-well plates and allowed to attach overnight. […] DNA content was then determined by Hoeschst 33258 dye staining and fluorescence detection using a plate reader (Perkin-Elmer, Boston, Mass.) as described. Relative survival assays after combined treatment were confirmed by colony-forming ability assays as described. Results were reported as means±SE from at least three independent experiments. For relative survival data, different combinations of IR+β-lap exposures were fit with simple multi-target models in SigmaPlot for Windows Version 11.0. For synergy, a statistical definition of synergy (48) was used and calculations were performed by fitting experimental data with the Machado and Robinson model using the R code (47). The equitoxic doses listed in Table 1 were calculated by the parameters of the model of Machado and Robinson obtained in fitting.
# H322 = assay: β-lapachone lethality in NQO1 genotyped cancer cells
# Method: (§1) Cell lines, mostly from a 5-panel nonsmall cell lung cancer panel from the UT Southwestern SPORE, were assessed for NQO1 polymorphism status and then monitored for NQO1 enzyme assays using β-lapachone or the standard menadione substrates. Cell line responses to β-lapachone exposures (μM, 2 h) were then assessed and lethal doses causing 50% lethality with or without dicoumarol (40 μM) co-treatments were recorded. NQO1*2/*2 and *3/*3 polymorphisms were detected from NQO1 *1/*1 wild-type sequences by PCR-RFLP. Genomic DNA was extracted from the cells using Qiagen spin columns. Using previously described oligonucleotide primers, PCR products underwent gel electrophoresis. Final genotyping was determined based on the size and pattern of separated bands diagnostic for *1/*1 (wild-type), or polymorphic *2/*2 or *3/*3 NQO1 polymorphisms.
# Calu-3/NSCLC = assay: as above
# Method: as §1
# HCC366/NSCLC = assay: as above
# Method: as §1
# H2009/NSCLC = assay: as above
# Method: as §1
# HCC1171/NSCLC = assay: as above
# Method: as §1
# HCC2935 = assay: as above
# Method: as §1
# T47D/BreastCancer = assay: as above
# Method: as §1
# MDA-MB-468/Breast = assay: as above
# Method: as §1
# H292 = assay: as above
# Method: as §1
# HCC44 = assay: as above
# Method: as §1
# MDA-MB-231/Breast = assay: as above
# Method: as §1
# H1648 = assay: as above
# Method: as §1
# H2073 = assay: as above
# Method: as §1
# H1993 = assay: as above
# Method: as §1
# [1] = *3/*3, 2 h, + dicoumarol (40 μM)
# [2] = NQO1 genotype *3/*3, 2 h exposure
# [3] = *2/*2, 2 h, + dicoumarol (40 μM)
# [4] = NQO1 genotype *2/*2, 2 h exposure
structure (smiles),measurement,setting,value
"CC1(C)CCC2=C(O1)c1ccccc1C(=O)C2=O [β-Lap, 3,4-dihydro-2,2-dimethyl-2H-naphtho[1,2-b]pyran-5,6-dione]",Exposure time sufficient to achieve maximal cytotoxicity,PC-3 cells; 4 μM β-lap,~120 min
same,β-lap dose with the same effect as the combination,PC-3 cells; 1 Gy+1 μM β-lap,4 µM
same,Equivalent dose of IR,PC-3 cells; IR 0 Gy + β-Lap 1 μM,0.6 Gy
same,Equivalent dose of β-Lap,PC-3 cells; IR 0 Gy + β-Lap 1 μM,1 µM
same,Equivalent dose of IR,PC-3 cells; IR 0 Gy + β-Lap 2 μM,1.2 Gy
same,Equivalent dose of β-Lap,PC-3 cells; IR 0 Gy + β-Lap 2 μM,2 µM
same,Equivalent dose of IR,PC-3 cells; IR 0 Gy + β-Lap 3 μM,1.7 Gy
same,Equivalent dose of β-Lap,PC-3 cells; IR 0 Gy + β-Lap 3 μM,3 µM
same,Equivalent dose of IR,PC-3 cells; IR 1 Gy + β-Lap 1 μM,1.7 Gy
same,Equivalent dose of β-Lap,PC-3 cells; IR 1 Gy + β-Lap 1 μM,4.1 µM
same,Equivalent dose of IR,PC-3 cells; IR 1 Gy + β-Lap 2 μM,2.1 Gy
same,Equivalent dose of β-Lap,PC-3 cells; IR 1 Gy + β-Lap 2 μM,5.6 µM
same,Equivalent dose of IR,PC-3 cells; IR 1 Gy + β-Lap 3 μM,2.7 Gy
same,Equivalent dose of β-Lap,PC-3 cells; IR 1 Gy + β-Lap 3 μM,6.8 µM
same,Equivalent dose of IR,PC-3 cells; IR 2 Gy + β-Lap 1 μM,2.6 Gy
same,Equivalent dose of β-Lap,PC-3 cells; IR 2 Gy + β-Lap 1 μM,7.9 µM
same,Equivalent dose of IR,PC-3 cells; IR 2 Gy + β-Lap 2 μM,3.1 Gy
same,Equivalent dose of β-Lap,PC-3 cells; IR 2 Gy + β-Lap 2 μM,9.6 µM
same,Equivalent dose of IR,PC-3 cells; IR 2 Gy + β-Lap 3 μM,3.6 Gy
same,Equivalent dose of β-Lap,PC-3 cells; IR 2 Gy + β-Lap 3 μM,11.5 µM
same,Equivalent dose of IR,PC-3 cells; IR 3 Gy + β-Lap 1 μM,3.7 Gy
same,Equivalent dose of β-Lap,PC-3 cells; IR 3 Gy + β-Lap 1 μM,12.5 µM
same,Equivalent dose of IR,PC-3 cells; IR 3 Gy + β-Lap 2 μM,4.1 Gy
same,Equivalent dose of β-Lap,PC-3 cells; IR 3 Gy + β-Lap 2 μM,14.5 µM
same,Equivalent dose of IR,PC-3 cells; IR 3 Gy + β-Lap 3 μM,4.6 Gy
same,Equivalent dose of β-Lap,PC-3 cells; IR 3 Gy + β-Lap 3 μM,16 µM
same,LD50 + DIC,"H322; H322, *1/*1, 2 h, + dicoumarol (40 μM)",>20 µM
same,β-Lap Lethality LD50,"H322; H322, NQO1 genotype *1/*1, 2 h exposure",5.7 µM
same,LD50 + DIC,Calu-3/NSCLC; [1],3 µM
same,β-Lap Lethality LD50,Calu-3/NSCLC; [2],2.4 µM
same,LD50 + DIC,HCC366/NSCLC; [3],>10 µM
same,β-Lap Lethality LD50,HCC366/NSCLC; [4],>10 µM
same,LD50 + DIC,H2009/NSCLC; [1],5.4 µM
same,β-Lap Lethality LD50,H2009/NSCLC; [2],4.3 µM
same,LD50 + DIC,HCC1171/NSCLC; [1],2 µM
same,β-Lap Lethality LD50,HCC1171/NSCLC; [2],3 µM
same,LD50 + DIC,"HCC2935; HCC2935, *1/*3, 2 h, + dicoumarol (40 μM)",>10 µM
same,β-Lap Lethality LD50,"HCC2935; HCC2935, NQO1 genotype *1/*3, 2 h exposure",1.0 µM
same,LD50 + DIC,T47D/BreastCancer; [1],4 µM
same,β-Lap Lethality LD50,T47D/BreastCancer; [2],4 µM
same,LD50 + DIC,MDA-MB-468/Breast; [3],>10 µM
same,β-Lap Lethality LD50,MDA-MB-468/Breast; [4],>10 µM
same,LD50 + DIC,"H292; H292, *1/*2, 2 h, + dicoumarol (40 μM)",>10 µM
same,β-Lap Lethality LD50,"H292; H292, NQO1 genotype *1/*2, 2 h exposure",1.8 µM
same,LD50 + DIC,"HCC44; HCC44, *1/*2, 2 h, + dicoumarol (40 μM)",>10 µM
same,β-Lap Lethality LD50,"HCC44; HCC44, NQO1 genotype *1/*2, 2 h exposure",2.8 µM
same,LD50 + DIC,MDA-MB-231/Breast; [3],>10 µM
same,β-Lap Lethality LD50,MDA-MB-231/Breast; [4],>10 µM
same,LD50 + DIC,"H1648; H1648, *1/*1, 2 h, + dicoumarol (40 μM)",>20 µM
same,β-Lap Lethality LD50,"H1648; H1648, NQO1 genotype *1/*1, 2 h exposure",4.1 µM
same,LD50 + DIC,"H2073; H2073, *1/*1, 2 h, + dicoumarol (40 μM)",>10 µM
same,β-Lap Lethality LD50,"H2073; H2073, NQO1 genotype *1/*1, 2 h exposure",1.8 µM
same,LD50 + DIC,"H1993; H1993, *1/*1, 2 h, + dicoumarol (40 μM)",>10 µM
same,β-Lap Lethality LD50,"H1993; H1993, NQO1 genotype *1/*1, 2 h exposure",1.8 µM
